Patent US8536202B2, “Triazole-substituted anthranilamides as pesticides” (Bayer Cropscience AG, priority 2010, dated 2013)
Read-outs that look alike come from different tables or passages of the source.

Legend:
[1] = system: green peach aphid (Myzus persicae); test: Myzus test (MYZUPE spray treatment), Use Example 4; assay type: in vivo; details: 144 h; for pest or weed control at 100 g/ha: read-out: activity in %
Method: Solvents: 78 parts by weight of acetone • • 1.5 parts by weight of dimethylformamide
Emulsifier: 0.5 part by weight of alkylaryl polyglycol ether
An appropriate preparation of active compound is prepared by mixing 1 part by weight of active compound with the stated amounts of solvents and emulsifier and diluting the concentrate with emulsifier-containing water to the desired concentration.
Leaf discs of Chinese cabbage (Brassica pekinensis) infested by all stages of the green peach aphid (Myzus persicae) are sprayed with a preparation of active compound at the desired concentration.
After 6 days, the activity in % is ascertained. Here, 100% means that all of the aphids have been killed; 0% means that no aphids have been killed.

[2] = system: larvae of the mustard beetle (Phaedon cochleariae); test: Phaedon test (PHAECO spray treatment); assay type: in vivo; details: 168 h, read-out: activity in %
In short: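 Compound dissolved in acetone/dimethylformamide with alkylaryl polyglycol ether emulsifier, then diluted with emulsifier-containing water to test concentration for spray treatment of Phaedon cochleariae larvae. Activity scored after 7 days as % larvae killed (100% = all dead, 0% = none).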

[3] = system: caterpillars of the armyworm (Spodoptera frugiperda); test: Spodoptera frugiperda test (SPODFR spray treatment); assay type: in vivo; details: 168 h; for pest or weed control at 100 g/ha: read-out: activity in %
In short: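 Maize leaf discs sprayed with compound diluted in emulsifier-containing water (acetone/DMF solvent, alkylaryl polyglycol ether emulsifier), dried, then infested with armyworm caterpillars. Kill scored after 7 days as % mortality, 100% = all caterpillars dead, 0% = none.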

[4] = log P determination by HPLC on reversed-phase columns (EEC Directive 79/831 Annex V.A8); assay type: physicochemical; details: pH 2.7
In short: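 log P from reversed-phase LC-MS retention at pH 2.7, 0.1% formic acid water/acetonitrile gradient 10–95% acetonitrile. Calibrated against C3–C16 unbranched alkan-2-ones, interpolating linearly between adjacent alkanones.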

[5] = HPLC on reversed-phase columns (C 18), EEC Directive 79/831 Annex V.A8, read-out: logP
[6] = reversed-phase C18 HPLC column, HPLC on reversed-phase columns (C 18), EEC Directive 79/831 Annex V.A8, read-out: logP

| chromatographic logP [4, 6] | Compound | pest or weed control at 100 g/ha ([1]; 100 g/ha, after 6 days) [%] | pest or weed control at 100 g/ha ([2]; 100 g/ha, after 7 days) [%] | pest or weed control at 100 g/ha ([3]; 100 g/ha, after 7 days) [%] | chromatographic logP [4] | pest or weed control at 100 g/ha [1] [%] | pest or weed control at 100 g/ha [2] [%] | pest or weed control at 100 g/ha [3] [%] | chromatographic logP [4, 5] | pest or weed control at 20 g/ha ([3]; 20 g/ha, after 7 days) [%] | pest or weed control at 20 g/ha ([1]; 20 g/ha, after 6 days) [%] |
| --- | --- | --- | --- | --- | --- | --- | --- | --- | --- | --- | --- |
| – | Cc1cc(C#N)cc(C(=O)NCC2CC2)c1NC(=O)c1cc(Cn2cc(C(F)(F)F)nn2)nn1-c1ncccc1Cl [Example 185] | 90 | 100 | 100 | 2.81 | – | – | – | – | – | – |
| – | CSC[C@H](C)NC(=O)c1cc(Cl)cc(C)c1NC(=O)c1cc(Cn2ncc(C(F)(F)F)n2)nn1-c1ncccc1Cl [Example 144] | 100 | 100 | 100 | 3.74 | – | – | – | – | – | – |
| – | CNC(=O)c1cc(Cl)cc(C)c1NC(=O)c1cc(Cn2cc(C(F)(F)C(F)(F)C(F)(F)F)nn2)nn1-c1ncccc1Cl [Example 328] | – | – | – | – | 100 | 100 | 100 | 3.38 | – | – |
| – | Cc1cc(C#N)cc(C(=O)NC2CC2)c1NC(=O)c1cc(Cn2cc(C(F)(F)C(F)(F)C(F)(F)F)nn2)nn1-c1ncccc1Cl [Example 342] | – | – | – | – | 100 | 100 | 100 | 3.22 | – | – |
| – | Cc1cc(Cl)cc(C(=O)NC(C)(C)C)c1NC(=O)c1cc(Cn2nccn2)nn1-c1ncccc1Cl [Example 121] | 100 | 100 | 100 | 2.87 | – | – | – | – | – | – |
| – | CNC(=O)c1cc(C#N)cc(C)c1NC(=O)c1cc(Cn2cc(C(F)(F)C(F)(F)F)nn2)nn1-c1ncccc1Cl [Example 317] | 100 | 100 | 100 | 2.68 | – | – | – | – | – | – |
| – | Cc1cc(Cl)cc(C(=O)NC(C)C)c1NC(=O)c1cc(Cn2ncc(C(F)(F)F)n2)nn1-c1ncccc1Cl [Example 139] | 90 | 100 | 100 | 3.48 | – | – | – | – | – | – |
| – | CNC(=O)c1cc(Cl)cc(C)c1NC(=O)c1cc(Cn2ncc(C(F)(F)C(F)(F)F)n2)nn1-c1ncccc1Cl [Example 352] | 80 | 100 | 100 | 3.4 | – | – | – | – | – | – |
| – | Cc1cc(Cl)cc(C(=O)NC(C)C)c1NC(=O)c1cc(Cn2cc(C(F)(F)C(F)(F)C(F)(F)F)nn2)nn1-c1ncccc1Cl [Example 340] | – | – | – | – | 100 | 100 | 100 | 3.8 | – | – |
| – | CNC(=O)c1cc(C#N)cc(C)c1NC(=O)c1cc(Cn2nc(C(F)(F)F)c(C(F)(F)F)n2)nn1-c1ncccc1Cl [Example 414] | 100 | 100 | 100 | 3.43 | – | – | – | – | – | – |
| 3.24 | Cc1cc(C#N)cc(C(=O)NC2CC2)c1NC(=O)c1cc(Cn2cc(C(F)(C(F)(F)F)C(F)(F)F)nn2)nn1-c1ncccc1Cl [Example 224] | 80 | 100 | 100 | – | – | – | – | – | – | – |
| – | CCNC(=O)c1cc(Cl)cc(C)c1NC(=O)c1cc(Cn2ncc(C(F)(F)C(F)(F)F)n2)nn1-c1ncccc1Cl [Example 350] | 80 | 100 | 100 | 3.66 | – | – | – | – | – | – |
| 4.02 | CSC[C@H](C)NC(=O)c1cc(Cl)cc(Cl)c1NC(=O)c1cc(Cn2cc(C(F)(C(F)(F)F)C(F)(F)F)nn2)nn1-c1ncccc1Cl [Example 246] | 80 | 100 | 100 | – | – | – | – | – | – | – |
| – | CNC(=O)c1cc(C#N)cc(C)c1NC(=O)c1cc(Cn2ncc(C(F)(F)C(F)(F)F)n2)nn1-c1ncccc1Cl [Example 365] | 100 | 100 | 100 | 3.04 | – | – | – | – | – | – |
| – | Cc1cc(C#N)cc(C(=O)NC(C)C2CC2)c1NC(=O)c1cc(Cn2cc(C(F)(F)C(F)(F)C(F)(F)F)nn2)nn1-c1ncccc1Cl (centres unmarked) [Example 331] | – | – | – | – | 100 | 100 | 100 | 3.71 | – | – |
| – | Cc1cc(Cl)cc(C(=O)NC(C)(C)C)c1NC(=O)c1cc(Cn2ncc(C(F)(F)C(F)(F)F)n2)nn1-c1ncccc1Cl [Example 360] | 80 | 100 | 100 | 4.27 | – | – | – | – | – | – |
| – | CNC(=O)c1cc(C#N)cc(C)c1NC(=O)c1cc(Cn2ncc(C(F)(C(F)(F)F)C(F)(F)F)n2)nn1-c1ncccc1Cl [Example 249] | 80 | 100 | 100 | 3.39 | – | – | – | – | – | – |
| – | Cc1cc(C#N)cc(C(=O)NC(C)C)c1NC(=O)c1cc(Cn2cc(C(F)(F)C(F)(F)C(F)(F)F)nn2)nn1-c1ncccc1Cl [Example 329] | – | – | – | – | 100 | 100 | 100 | 3.42 | – | – |
| 2.55 | Cc1cc(C#N)cc(C(=O)NC2CC2)c1NC(=O)c1cc(Cn2ncc(C(F)(F)F)n2)nn1-c1ncccc1Br [Example 11] | 100 | 100 | 100 | – | – | – | – | – | – | – |
| – | Cc1cc(I)cc(C(N)=O)c1NC(=O)c1cc(Cn2ncc(C(F)(C(F)(F)F)C(F)(F)F)n2)nn1-c1ncccc1Cl [Example 271] | 80 | 100 | – | 3.7 | – | – | – | – | 100 | – |
| – | Cc1cc(C#N)cc(C(=O)NC2CC2)c1NC(=O)c1cc(Cn2ncc(C(F)(F)C(F)(F)F)n2)nn1-c1ncccc1Cl [Example 353] | 100 | 100 | 100 | 3.25 | – | – | – | – | – | – |
| 3.3 | Cc1cc(C#N)cc(C(=O)NC2CC2)c1NC(=O)c1cc(Cn2ncc(C(F)(F)F)n2)nn1-c1ccccc1Cl [Example 289] | 100 | 100 | 100 | – | – | – | – | – | – | – |
| – | Cc1cc(C#N)cc(C(=O)NCC2CC2)c1NC(=O)c1cc(Cn2ncc(C(F)(F)F)n2)nn1-c1ncccc1Cl [Example 130] | 100 | 100 | 100 | 3.17 | – | – | – | – | – | – |
| – | Cc1cc(Cl)cc(C(=O)NC(C)C2CC2)c1NC(=O)c1cc(Cn2cc(C(F)(F)C(F)(F)C(F)(F)F)nn2)nn1-c1ncccc1Cl (centres unmarked) [Example 327] | – | – | – | – | 100 | 100 | 100 | 4.15 | – | – |
| – | Cc1cc(C#N)cc(C(N)=O)c1NC(=O)c1cc(Cn2ncc(C(F)(F)F)n2)nn1-c1ncccc1Cl [Example 123] | – | 100 | 100 | 2.41 | – | – | – | – | – | 100 |
| 3.52 | Cc1cc(C#N)cc(C(=O)NCC2CC2)c1NC(=O)c1cc(Cn2cc(C(F)(C(F)(F)F)C(F)(F)F)nn2)nn1-c1ncccc1Cl [Example 221] | 80 | 100 | 100 | – | – | – | – | – | – | – |
